Source: ChEMBL document CHEMBL1201862, “PubChem BioAssay data set” (2004)
The source made the active and inactive calls.

Tests used:
[1] = HepG2 cell cytotoxicity, dose response, cytotoxicity control, ATP luminescence, cherry-pick, activator set 2 (AID 1053143); assay type: functional, cell-based
[2] = system: H4; assay: Luminescence Cell-Based Dose Response HTS to Identify Activators of 5'UTR Stem-Loop Driven Prion Protein mRNA Translation in H4 Neuroglioblastoma Cells. [Related pubchem assays: 1829 (Project Summary), 1814 (Primary HTS)]; assay type: functional; conditions: Homo sapiens
[3] = cells; assay type: functional, cell-based
[4] = Luminescence Cell-Based Dose Confirmation HTS to Identify Activators of 5'UTR Stem-Loop Driven Alpha-Synuclein mRNA Translation in H4 Neuroglioblastoma Cells. [Related pubchem assays: 1829 (Project Summary), 1814 (Primary HTS)]; assay type: functional
[5] = Luminescence Cell-Based Dose Response HTS to Identify Activators of Luciferase Translation or Activity in H4 […] Cells. [Related pubchem assays: 1829 (Project Summary), 1814 (Primary HTS)]; assay type: functional
[6] = target: Nuclear receptor subfamily 0 group B member 1 (Homo sapiens, UniProt P51843); assay: Luminescence-based cell-based high throughput dose response assay for inhibitors of the orphan nuclear receptor subfamily 0, group B, member 1 (DAX1; NR0B1). [Related pubchem assays (depositor defined):AID504766, AID504790]; assay type: functional
[7] = system: HEK293; assay: cells; assay type: functional, cell-based; conditions: Homo sapiens
[8] = cells; assay type: functional, cell-based; remark: listed apart in the source
[9] = target: T1, Orexin receptor type 2 (Homo sapiens, UniProt O43614); assay: Counterscreen assay for antagonists of the orexin 1 receptor (OX1R; HCRTR1): Homogeneous Time Resolved Fluorescence (HTRF)-based cell-based dose response assay for antagonists of the orexin 2 receptor (OX2R; HCRTR2), run by assay provider.; assay type: functional
[10] = target: T2, Orexin/Hypocretin receptor type 1 (Homo sapiens, UniProt O43613); assay: (§1) Fluorescence-based cell-based high throughput dose response assay for antagonists of the orexin 1 receptor (OX1R; HCRTR1). [Related pubchem assays (depositor defined):AID434989, AID435008, AID463079, AID485270, AID492963, AID492964, AID492965, AID493232, AID504717, AID504718]; assay type: functional
[11] = target: T1, Orexin receptor type 2; assay: Counterscreen assay for antagonists of the orexin 1 receptor (OX1R; HCRTR1): Fluorescence-based cell-based dose response assay for antagonists of the orexin 2 receptor (OX2R; HCRTR2), run by assay provider.; assay type: functional
[12] = (§2) Counterscreen for antagonists of the orexin 1 receptor (OX1R; HCRTR1): Fluorescence-based cell-based high throughput dose response assay to identify antagonists of the parental CHO cell line. [Related pubchem assays (depositor defined):AID434989, AID435008, AID463079, AID485270, AID492963, AID492964, AID492965, AID493232, AID504699, AID504701]; assay type: functional
[13] = system: CHO-K1; assay: as §2, with “Homogeneous time resolved fluorescence (HTRF)-based” for “Fluorescence-based”, “cell-based” for “cell-based high throughput”, “CHO-K1” for “CHO”; assay type: functional; conditions: Cricetulus griseus;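 further: potency for inhibition of ATP-stimulated IP1 production as antagonists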
[14] = target: T2, Orexin/Hypocretin receptor type 1; assay: as §1, with “Homogeneous Time Resolved Fluorescence (HTRF)-based” for “Fluorescence-based”; assay type: functional
[15] = inhibitors of clade B AD8 Env fusion, dose response, cell-based, cherry-pick (AID 652062); assay type: functional;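 further: luciferase signal from cell-cell fusion driven by HIV-1 clade B AD8 Env; potency is for inhibitors of fusion seen as a drop in luminescence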
[16] = target: Latent membrane protein 1 (Human herpesvirus 4 (strain B95-8), UniProt P03230); assay: TES1-eGFP NF-kB reporter inhibition versus Tet-On dsRED, dose response, selectivity assay for LMP1 NF-kB inhibitor project, imaging, HEK293T, dual-color eGFP/dsRED, cherry-picks (AID 588398); assay type: functional, cell-based
[17] = target: Dual specificity tyrosine-phosphorylation-regulated kinase 1A (Rattus norvegicus, UniProt Q63470); assay type: biochemical, Homo sapiens
[18] = off-target signal loss in HeLa-CEM21 co-culture – HeLa F-luc CTL cells, cherry-picked, counter-screen for HIV-1 Env fusion inhibitor project, dose response (AID 652040); assay type: functional, cell-based;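 further: potency for signal decrease marking cytotoxic or nonspecific inhibition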
[19] = target: Luciferin 4-monooxygenase (Photuris pensylvanica, UniProt Q27757); assay: firefly luciferase enzyme inhibitors, dose response, counter-screen for HSF-1 reporter inhibitor project, biochemical, Cell Titer Glo, luminescence, cherry-picks (AID 588847)
[20] = system: HEK293; assay: inhibitors of LMP1-driven NF-kB reporter, dose response, cell-based, HEK293, luciferase, cherry-pick (AID 588343); assay type: functional; conditions: Homo sapiens
[21] = inhibitors of HIV Env-driven cell fusion, dose response, cherry-pick (AID 652057); assay type: functional, cell-based
[22] = target: T3, Heat shock factor protein 1 (Mus musculus, UniProt P38532); assay: inhibition of MG132-induced HSE-luciferase signal, confirmation, cell-based, NIH3T3, luminescence, dose retest (AID 2382); assay type: functional;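 further: NIH3T3 fibroblasts with HSF1-driven luciferase reporter stressed by proteasome inhibitor MG132; luminescence from HSF1-driven luciferase expression after 8 hours of MG132 stress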
T3 sequence (P38532 whole entry): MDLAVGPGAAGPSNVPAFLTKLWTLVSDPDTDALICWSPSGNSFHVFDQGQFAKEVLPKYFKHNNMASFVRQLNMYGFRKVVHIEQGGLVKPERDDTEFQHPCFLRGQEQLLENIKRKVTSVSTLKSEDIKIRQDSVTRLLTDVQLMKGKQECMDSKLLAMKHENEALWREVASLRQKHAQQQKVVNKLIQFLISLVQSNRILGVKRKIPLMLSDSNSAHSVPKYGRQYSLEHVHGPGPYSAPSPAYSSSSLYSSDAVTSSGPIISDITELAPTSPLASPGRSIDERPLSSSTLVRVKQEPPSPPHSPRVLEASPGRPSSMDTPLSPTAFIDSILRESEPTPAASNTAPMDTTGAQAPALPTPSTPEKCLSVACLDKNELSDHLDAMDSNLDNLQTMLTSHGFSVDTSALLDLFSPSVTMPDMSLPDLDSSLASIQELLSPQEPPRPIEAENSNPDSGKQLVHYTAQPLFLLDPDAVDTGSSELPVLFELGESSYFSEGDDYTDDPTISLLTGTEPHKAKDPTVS

[23] = target: T4, Short transient receptor potential channel 4 (Mus musculus, UniProt Q9QUQ5); assay: SAR Analysis for the identification of selective inhibits of the transient receptor potential cation channel C4 (TRPC4): Automated Electrophysiology. [Related pubchem assays (depositor defined):AID2256]; assay type: functional
T4 sequence (Q9QUQ5 whole entry): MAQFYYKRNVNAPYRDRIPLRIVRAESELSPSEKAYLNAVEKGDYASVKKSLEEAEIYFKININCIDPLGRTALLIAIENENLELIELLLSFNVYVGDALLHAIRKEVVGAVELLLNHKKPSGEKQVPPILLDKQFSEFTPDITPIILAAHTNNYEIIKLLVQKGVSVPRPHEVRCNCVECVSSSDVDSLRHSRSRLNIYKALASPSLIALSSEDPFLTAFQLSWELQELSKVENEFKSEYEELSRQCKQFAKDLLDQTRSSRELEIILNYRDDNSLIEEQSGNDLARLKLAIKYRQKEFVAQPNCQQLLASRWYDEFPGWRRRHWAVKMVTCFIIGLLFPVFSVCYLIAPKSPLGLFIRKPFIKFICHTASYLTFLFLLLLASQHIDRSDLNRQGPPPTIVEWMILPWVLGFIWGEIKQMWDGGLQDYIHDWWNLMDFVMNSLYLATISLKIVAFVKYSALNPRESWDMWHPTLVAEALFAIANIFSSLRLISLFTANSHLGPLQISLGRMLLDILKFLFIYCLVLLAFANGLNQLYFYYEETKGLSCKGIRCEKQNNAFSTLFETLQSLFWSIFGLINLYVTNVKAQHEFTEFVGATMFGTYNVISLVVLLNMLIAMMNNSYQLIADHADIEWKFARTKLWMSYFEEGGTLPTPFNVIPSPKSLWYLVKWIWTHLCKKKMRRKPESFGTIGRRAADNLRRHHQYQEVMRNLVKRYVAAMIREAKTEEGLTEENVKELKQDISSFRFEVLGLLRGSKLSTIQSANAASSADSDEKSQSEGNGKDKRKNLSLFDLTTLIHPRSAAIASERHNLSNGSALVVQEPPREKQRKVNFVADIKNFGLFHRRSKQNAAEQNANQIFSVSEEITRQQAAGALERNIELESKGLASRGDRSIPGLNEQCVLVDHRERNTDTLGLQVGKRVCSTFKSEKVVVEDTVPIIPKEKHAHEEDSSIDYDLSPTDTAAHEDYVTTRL

[24] = target: T4, Short transient receptor potential channel 4; assay: TRPC4 inhibitor concentration-response, dose response, cell-based, HEK293 TRPC4/mu-opioid, DAMGO stimulus, Fluo-4 (AID 492994); assay type: functional
[25] = target: T4, Short transient receptor potential channel 4; assay: TRPC4 inhibition under acetylcholine activation, SAR follow-up, cell-based, acetylcholine stimulus, HEK293 TRPC4, Fluo-4 (AID 492996); assay type: functional
[26] = target: T4, Short transient receptor potential channel 4; assay: SAR Analysis for the identification of selective inhibitors of the transient receptor potential cation channel C4 (TRPC4): TRPC4 Serotonin Receptor CRC MPD assay. [Related pubchem assays (depositor defined):AID2247, AID2256]; assay type: functional
[27] = target: Short transient receptor potential channel 6 (Mus musculus, UniProt Q61143); assay: TRPC6 inhibition potency of TRPC4 inhibitor analogs, dose response, selectivity assay for selective TRPC4 inhibitor project, HEK293 cells, membrane potential dye, IC50 (AID 492987); assay type: functional, cell-based
[28] = target: Serine/threonine-protein kinase MRCK alpha (Homo sapiens, UniProt Q5VT25); assay type: functional
[29] = target: Serine/threonine-protein kinase pim-1 (Homo sapiens, UniProt P11309); assay type: functional
[30] = target: Serine/threonine-protein kinase PAK 1 (Homo sapiens, UniProt Q13153); assay type: functional
[31] = target: Protein kinase C delta type (Homo sapiens, UniProt Q05655); assay type: functional
[32] = target: Protein kinase C gamma type (Homo sapiens, UniProt P05129); assay type: functional
[33] = target: Calcium/calmodulin-dependent protein kinase type 1 (Homo sapiens, UniProt Q14012); assay type: functional
[34] = target: Protein kinase C zeta type (Homo sapiens, UniProt Q05513); assay type: functional;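 further: measured as one member of a broad kinase profiling panel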
Chain of Protein kinase C zeta type (Q05513 whole entry): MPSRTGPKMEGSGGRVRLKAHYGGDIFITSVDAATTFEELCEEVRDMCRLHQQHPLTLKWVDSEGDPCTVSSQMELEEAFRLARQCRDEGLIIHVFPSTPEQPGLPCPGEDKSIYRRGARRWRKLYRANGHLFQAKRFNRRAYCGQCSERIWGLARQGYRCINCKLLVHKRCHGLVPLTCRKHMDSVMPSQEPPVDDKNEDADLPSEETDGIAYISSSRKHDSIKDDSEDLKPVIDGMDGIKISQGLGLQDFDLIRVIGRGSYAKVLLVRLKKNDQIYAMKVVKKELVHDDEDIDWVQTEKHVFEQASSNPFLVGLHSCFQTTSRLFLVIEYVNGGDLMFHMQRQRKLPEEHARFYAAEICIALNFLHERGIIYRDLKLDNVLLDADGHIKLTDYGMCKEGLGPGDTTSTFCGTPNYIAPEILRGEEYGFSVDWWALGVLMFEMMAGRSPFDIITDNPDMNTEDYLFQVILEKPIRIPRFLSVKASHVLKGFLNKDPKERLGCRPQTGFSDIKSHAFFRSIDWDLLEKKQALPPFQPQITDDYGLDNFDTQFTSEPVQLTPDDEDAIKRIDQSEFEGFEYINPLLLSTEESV

T2 sequence (O43613 whole entry): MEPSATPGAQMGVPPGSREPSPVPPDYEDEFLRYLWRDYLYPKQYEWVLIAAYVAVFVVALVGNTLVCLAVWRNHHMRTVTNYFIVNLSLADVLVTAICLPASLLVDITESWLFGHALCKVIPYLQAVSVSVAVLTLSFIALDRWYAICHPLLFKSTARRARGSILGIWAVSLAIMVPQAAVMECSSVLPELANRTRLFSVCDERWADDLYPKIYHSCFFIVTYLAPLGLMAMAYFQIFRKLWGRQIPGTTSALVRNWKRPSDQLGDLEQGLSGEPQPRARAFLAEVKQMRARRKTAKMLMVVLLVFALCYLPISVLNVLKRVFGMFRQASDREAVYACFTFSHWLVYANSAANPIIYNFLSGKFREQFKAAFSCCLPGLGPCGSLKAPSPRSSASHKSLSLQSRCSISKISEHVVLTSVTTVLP
T1 sequence (O43614 whole entry): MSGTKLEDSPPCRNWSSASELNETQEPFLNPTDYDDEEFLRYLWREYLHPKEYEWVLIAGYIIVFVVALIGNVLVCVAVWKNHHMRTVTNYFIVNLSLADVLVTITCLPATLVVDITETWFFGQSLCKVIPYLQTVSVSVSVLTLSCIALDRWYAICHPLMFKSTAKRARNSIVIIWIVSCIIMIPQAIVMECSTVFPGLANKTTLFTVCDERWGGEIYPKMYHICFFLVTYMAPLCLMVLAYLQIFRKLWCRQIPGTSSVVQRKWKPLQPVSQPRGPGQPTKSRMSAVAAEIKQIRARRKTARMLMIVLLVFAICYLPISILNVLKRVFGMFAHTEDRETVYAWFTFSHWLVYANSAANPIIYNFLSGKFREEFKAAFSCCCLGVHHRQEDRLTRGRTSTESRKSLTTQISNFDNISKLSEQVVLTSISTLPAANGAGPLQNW
Chain of Luciferin 4-monooxygenase (Q27757 whole entry): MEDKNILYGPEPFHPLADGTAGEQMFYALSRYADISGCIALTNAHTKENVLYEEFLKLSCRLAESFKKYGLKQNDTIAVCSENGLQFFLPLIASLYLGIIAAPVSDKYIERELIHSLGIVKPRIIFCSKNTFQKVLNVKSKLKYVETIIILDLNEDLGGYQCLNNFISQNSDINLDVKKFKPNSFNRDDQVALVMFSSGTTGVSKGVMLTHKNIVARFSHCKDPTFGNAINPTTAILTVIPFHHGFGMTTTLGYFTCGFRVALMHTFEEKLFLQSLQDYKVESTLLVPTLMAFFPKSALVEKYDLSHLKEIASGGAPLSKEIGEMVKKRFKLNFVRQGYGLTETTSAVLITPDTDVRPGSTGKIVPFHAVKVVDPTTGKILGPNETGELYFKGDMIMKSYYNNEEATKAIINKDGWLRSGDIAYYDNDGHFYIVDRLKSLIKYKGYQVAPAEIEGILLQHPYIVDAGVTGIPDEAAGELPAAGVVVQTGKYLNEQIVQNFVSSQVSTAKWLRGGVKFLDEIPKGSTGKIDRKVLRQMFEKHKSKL
Chain of Nuclear receptor subfamily 0 group B member 1 (P51843 whole entry): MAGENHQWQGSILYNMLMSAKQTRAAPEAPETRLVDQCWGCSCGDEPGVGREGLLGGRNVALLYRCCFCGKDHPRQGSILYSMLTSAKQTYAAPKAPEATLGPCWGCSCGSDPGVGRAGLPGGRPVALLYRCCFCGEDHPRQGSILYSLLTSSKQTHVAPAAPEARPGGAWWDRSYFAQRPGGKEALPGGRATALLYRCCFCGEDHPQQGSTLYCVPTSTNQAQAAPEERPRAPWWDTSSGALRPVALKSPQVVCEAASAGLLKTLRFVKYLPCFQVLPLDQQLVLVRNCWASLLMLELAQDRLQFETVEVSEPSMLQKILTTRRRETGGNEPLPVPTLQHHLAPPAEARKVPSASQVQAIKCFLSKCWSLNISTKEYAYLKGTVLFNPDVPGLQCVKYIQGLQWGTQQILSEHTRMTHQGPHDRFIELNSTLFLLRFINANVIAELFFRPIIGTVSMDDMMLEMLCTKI
Chain of Serine/threonine-protein kinase pim-1 (P11309 whole entry): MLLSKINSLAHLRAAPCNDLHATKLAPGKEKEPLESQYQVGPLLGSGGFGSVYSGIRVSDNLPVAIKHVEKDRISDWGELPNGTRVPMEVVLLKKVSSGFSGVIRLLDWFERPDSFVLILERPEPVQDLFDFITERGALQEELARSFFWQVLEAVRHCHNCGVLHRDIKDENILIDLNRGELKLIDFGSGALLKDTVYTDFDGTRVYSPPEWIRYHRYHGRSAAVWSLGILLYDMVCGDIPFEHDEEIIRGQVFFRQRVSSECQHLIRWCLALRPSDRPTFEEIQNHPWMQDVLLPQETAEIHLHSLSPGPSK
Chain of Serine/threonine-protein kinase PAK 1 (Q13153 whole entry): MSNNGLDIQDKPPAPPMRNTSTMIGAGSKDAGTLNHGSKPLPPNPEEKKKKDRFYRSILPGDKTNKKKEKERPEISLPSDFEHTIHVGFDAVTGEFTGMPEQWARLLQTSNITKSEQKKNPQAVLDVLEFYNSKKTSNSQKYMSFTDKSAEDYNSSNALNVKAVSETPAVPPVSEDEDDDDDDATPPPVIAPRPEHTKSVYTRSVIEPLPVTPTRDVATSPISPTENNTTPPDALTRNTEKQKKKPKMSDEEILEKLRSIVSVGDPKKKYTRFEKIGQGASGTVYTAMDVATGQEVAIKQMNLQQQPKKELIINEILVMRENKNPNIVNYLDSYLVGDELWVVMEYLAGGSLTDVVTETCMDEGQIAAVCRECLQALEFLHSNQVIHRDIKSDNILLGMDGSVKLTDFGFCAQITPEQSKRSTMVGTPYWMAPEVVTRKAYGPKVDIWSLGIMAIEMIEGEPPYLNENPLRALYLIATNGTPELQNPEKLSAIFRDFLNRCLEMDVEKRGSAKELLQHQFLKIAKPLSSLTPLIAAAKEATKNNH
Chain of Calcium/calmodulin-dependent protein kinase type 1 (Q14012 whole entry): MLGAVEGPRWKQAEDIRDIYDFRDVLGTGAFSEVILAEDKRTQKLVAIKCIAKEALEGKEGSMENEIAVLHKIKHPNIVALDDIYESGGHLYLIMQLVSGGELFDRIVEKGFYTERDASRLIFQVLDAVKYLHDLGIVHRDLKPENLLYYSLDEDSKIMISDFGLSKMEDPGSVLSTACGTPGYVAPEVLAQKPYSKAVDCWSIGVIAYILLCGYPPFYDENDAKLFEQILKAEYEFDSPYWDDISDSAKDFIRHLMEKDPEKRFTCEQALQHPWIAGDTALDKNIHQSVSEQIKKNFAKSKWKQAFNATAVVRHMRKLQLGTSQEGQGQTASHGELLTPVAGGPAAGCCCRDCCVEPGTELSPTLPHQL
Chain of Latent membrane protein 1 (P03230 whole entry): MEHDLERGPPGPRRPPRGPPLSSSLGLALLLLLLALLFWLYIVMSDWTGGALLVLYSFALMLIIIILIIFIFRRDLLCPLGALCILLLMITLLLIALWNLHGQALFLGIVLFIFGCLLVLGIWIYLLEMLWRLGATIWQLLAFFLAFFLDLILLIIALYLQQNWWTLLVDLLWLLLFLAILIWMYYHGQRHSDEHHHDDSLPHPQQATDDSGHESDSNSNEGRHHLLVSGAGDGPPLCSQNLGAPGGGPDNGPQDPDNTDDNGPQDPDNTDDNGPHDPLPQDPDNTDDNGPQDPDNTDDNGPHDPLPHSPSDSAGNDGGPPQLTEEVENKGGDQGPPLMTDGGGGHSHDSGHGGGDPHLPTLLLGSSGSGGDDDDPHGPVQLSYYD

Structure (SMILES): O=C(Nc1ccccc1O)c1ccc(NC(=O)C2CC2)cc1
- AC50 [1]: 18.8 µM (active)
- EC50 [2]: 12.3 µM (active)
- EC50 [3]: 51.3 µM (active)
- EC50 [4]: 10.5 µM (active)
- EC50 [5]: 17.3 µM (active)
- IC50 [6]: > 67.6 µM (inactive)
- IC50 [7]: 1.91 µM (active)
- EC50 [8]: 11.2 µM (active)

Structure (SMILES): CNc1oc(-c2cccc3ccccc23)nc1C#N
- IC50 [9]: > 50 µM (inactive)
- IC50 [10]: 3.48 µM (active)
- IC50 [11]: > 88.8 µM (inactive)
- IC50 [12]: > 49.7 µM (inactive)
- IC50 [13]: > 66.2 µM (inactive)
- IC50 [14]: 0.887 µM (active)

Structure (SMILES): CC1=C(C(=O)OCc2ccc3c(c2)OCO3)C(c2ccc(F)cc2)NC(=O)N1 (centres undefined)
- AC50 [15]: 1.47 µM (active)
- AC50 [16]: 9.67 µM (active)
- AC50 [17]: 1.85 µM (active)
- AC50 [18]: 0.576 µM (active)
- AC50 [19]: > 52 µM (inactive)
- AC50 [20]: 3.36 µM (active)
- AC50 [21]: 0.284 µM (active)
- EC50 [22]: < 0.16 µM (active)

Structure (SMILES): CCc1ccc2nc(N3CCCC3)cc(C)c2c1
- IC50 [23]: 2.05 µM (active)
- IC50 [24]: 0.483 µM (active)
- IC50 [25]: 9.52 µM (active)
- IC50 [26]: 4.23 µM (active)
- IC50 [27]: 14.1 µM (active)

Structure (SMILES): CC(C)c1ccc2c(c1)c(SC(C)(C)C)c(CC(C)(C)CNCCCO)n2Cc1ccc(Cl)cc1
- Ki [28]: 6.31 µM (active)
- Ki [29]: 5.01 µM (active)
- Ki [30]: 2 µM (active)
- Ki [31]: 2.51 µM (active)
- Ki [32]: 3.98 µM (active)
- Ki [33]: 7.94 µM (active)
- Ki [34]: 7.94 µM (active)
